Data as given in patent publication US12539264B2, “Composition comprising pentapeptide as active ingredient” (priority 2020, dated 2026).
No end group written: not given here.

Legend:
SH-SY5Y cells = assay: Intracellular penetration of rhodamine-pentapeptide conjugate (fluorescence microscopy); format: cell-based; settings: rhodamine-peptide conjugate, 4 hours
Method: In order to confirm that the pentapeptide of the present invention penetrates into the nerve cells, SH-SY5Y cells were seeded in a 6-well plate at a density of 3×10^5 cells/well and cultured in a 37° C., 5% CO2 incubator for 24 hours, and then the medium was replaced with serum-free medium. After treatment with the rhodamine-peptide conjugate for 4 hours at each concentration, cells were fixed by treatment with 4% paraformaldehyde, and nuclei were stained using a DAPI staining kit (Invitrogen, USA). Intracellular peptide penetration was observed using a fluorescence microscope. Blue represents the nuclei of cells stained with DAPI, and red represents the ‘rhodamine-pentapeptide’ conjugate.

[1] = rat, in vivo
SNARE complex = SNARE complex (Homo sapiens, UniProt Q16623); assay: Inhibition of SNARE complex formation in nerve cells (Western blot, syntaxin 1a antibody); format: cell-based
Chain of SNARE complex (Q16623 whole entry, one chain of several): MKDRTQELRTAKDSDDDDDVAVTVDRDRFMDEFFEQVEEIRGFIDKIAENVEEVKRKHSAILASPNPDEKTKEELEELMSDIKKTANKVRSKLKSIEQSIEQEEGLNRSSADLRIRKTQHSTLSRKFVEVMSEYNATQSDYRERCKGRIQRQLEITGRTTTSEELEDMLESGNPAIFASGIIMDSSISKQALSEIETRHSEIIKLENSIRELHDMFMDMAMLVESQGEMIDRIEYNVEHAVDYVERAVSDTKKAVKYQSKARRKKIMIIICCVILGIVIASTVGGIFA

Row | Substance | penetration into nerve cells (SH-SY5Y cells) | penetration into skin tissue [1] | SNARE complex formation (SNARE complex)
1 | KFLIK [pentapeptide, KFLIK] | penetrated into nerve cells | penetrated into the muscle layer of the skin tissue and co-localized with the nerve cell marker | –
2 | botulinum toxin | – | – | inhibited
